Here are results for 1 compound from patent US20130096100A1, “DI(ARYLAMINO)ARYL COMPOUND” (ASTELLAS PHARMA INC., priority 2007, published 2013).

Data set [1] in a line: Toxicity test in rats, 7-day repeated oral administration (Test Example 5). Type of data set: in vivo, SD rats. The note with it: 7 days; for Non-toxic dose: oral; for Dose: Bone marrow inhibition / Dose: Exacerbation of common symptoms / Dose: Moribund condition: SD, rat, in vivo, po. From the text: Test compounds were each suspended in a 0.5% aqueous methylcellulose solution and repeatedly administered to SD rats (two females and four males in each group) by the oral route at each dose for 7 days.

The test system of another data set is 88 types of kinases. Nature of the data set: Kinase inhibition profiling, 88 types of kinases (Test Example 6). Type of data set: biochemical. As to conditions: concentration of 100 nM.
The target in a further data set is T1, MER (Homo sapiens, UniProt Q12866).
T1 construct: purchased Carna Biosciences Inc., Japan (contract measurement)
T1 sequence (Q12866 21-999): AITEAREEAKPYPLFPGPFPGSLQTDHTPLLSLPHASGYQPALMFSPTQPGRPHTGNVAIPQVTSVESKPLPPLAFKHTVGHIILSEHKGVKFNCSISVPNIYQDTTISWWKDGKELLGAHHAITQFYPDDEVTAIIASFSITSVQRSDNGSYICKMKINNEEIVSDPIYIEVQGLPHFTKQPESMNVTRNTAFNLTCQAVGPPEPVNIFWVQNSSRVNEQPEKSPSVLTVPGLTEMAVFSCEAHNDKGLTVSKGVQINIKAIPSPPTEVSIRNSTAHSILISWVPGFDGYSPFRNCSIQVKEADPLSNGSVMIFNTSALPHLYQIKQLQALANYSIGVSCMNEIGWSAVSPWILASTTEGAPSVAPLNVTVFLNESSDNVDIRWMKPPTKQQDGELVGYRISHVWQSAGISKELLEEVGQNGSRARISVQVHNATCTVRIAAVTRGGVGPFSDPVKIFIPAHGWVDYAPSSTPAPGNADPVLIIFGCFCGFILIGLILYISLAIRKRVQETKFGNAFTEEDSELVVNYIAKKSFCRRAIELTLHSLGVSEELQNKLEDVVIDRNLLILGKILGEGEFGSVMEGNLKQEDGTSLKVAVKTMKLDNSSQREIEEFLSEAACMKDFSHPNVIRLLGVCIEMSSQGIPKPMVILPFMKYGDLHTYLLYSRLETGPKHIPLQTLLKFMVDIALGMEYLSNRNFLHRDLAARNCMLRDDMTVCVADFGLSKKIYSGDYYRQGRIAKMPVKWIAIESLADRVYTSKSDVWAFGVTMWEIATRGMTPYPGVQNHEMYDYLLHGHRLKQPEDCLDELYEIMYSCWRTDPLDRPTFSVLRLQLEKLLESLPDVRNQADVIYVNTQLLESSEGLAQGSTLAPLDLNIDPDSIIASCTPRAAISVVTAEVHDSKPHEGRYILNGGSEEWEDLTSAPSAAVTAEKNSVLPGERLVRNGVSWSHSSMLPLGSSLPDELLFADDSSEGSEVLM
Nature of the data set: Kinase inhibition profiling, MER (Test Example 6). Format: biochemical. The note with it: 100 nM; read-out: inhibitory activity against MER.

The next data set deals with T2, MNK2 (Homo sapiens, UniProt Q9HBH9).
T2 construct: purchased Carna Biosciences Inc., Japan (contract measurement)
In words: Kinase inhibition profiling, MNK2 (Test Example 6). Type of data set: biochemical. As to conditions: 100 nM; read-out: inhibitory activity against MNK2.

For another data set, the target named is T3, MNK1 (Homo sapiens, UniProt Q9BUB5).
T3 construct: purchased Carna Biosciences Inc., Japan (contract measurement)
Nature of the data set: Kinase inhibition profiling, MNK1 (Test Example 6). Type of data set: biochemical. As to conditions: 100 nM; read-out: inhibitory activity against MNK1.

T3 sequence (Q9BUB5 whole entry): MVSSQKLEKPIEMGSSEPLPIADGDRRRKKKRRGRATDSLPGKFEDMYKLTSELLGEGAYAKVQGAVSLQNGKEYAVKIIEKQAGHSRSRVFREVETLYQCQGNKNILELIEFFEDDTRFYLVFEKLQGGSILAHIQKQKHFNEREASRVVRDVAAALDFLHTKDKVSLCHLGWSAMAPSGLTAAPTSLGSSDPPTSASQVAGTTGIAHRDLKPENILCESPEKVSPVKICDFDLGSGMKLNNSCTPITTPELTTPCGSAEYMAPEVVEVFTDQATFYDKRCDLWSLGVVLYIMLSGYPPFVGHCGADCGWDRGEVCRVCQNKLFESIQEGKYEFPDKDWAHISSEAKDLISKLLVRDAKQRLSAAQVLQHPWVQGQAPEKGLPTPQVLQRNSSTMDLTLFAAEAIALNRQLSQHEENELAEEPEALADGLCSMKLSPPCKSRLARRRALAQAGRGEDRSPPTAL
T2 sequence (Q9HBH9 whole entry): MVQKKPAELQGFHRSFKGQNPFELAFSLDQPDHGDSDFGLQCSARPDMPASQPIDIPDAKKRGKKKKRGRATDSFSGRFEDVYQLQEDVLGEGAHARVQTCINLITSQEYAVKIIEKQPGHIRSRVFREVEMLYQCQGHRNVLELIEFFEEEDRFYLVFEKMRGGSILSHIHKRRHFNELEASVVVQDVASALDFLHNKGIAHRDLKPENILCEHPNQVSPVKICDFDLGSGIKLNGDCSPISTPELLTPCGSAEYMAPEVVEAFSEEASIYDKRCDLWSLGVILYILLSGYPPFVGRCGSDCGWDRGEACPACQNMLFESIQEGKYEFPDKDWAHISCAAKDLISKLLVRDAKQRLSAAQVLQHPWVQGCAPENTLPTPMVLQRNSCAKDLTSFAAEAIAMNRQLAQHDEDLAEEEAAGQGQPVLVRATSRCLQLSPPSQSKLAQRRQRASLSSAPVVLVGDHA

Take `COc1cc(N2CCC(N3CCN(C)CC3)CC2)ccc1Nc1ncnc(Nc2ccccc2S(=O)(=O)C(C)C)n1` [Example 23]: the Non-toxic dose in data set [1] (female SD rats (2 rats)) and in data set [1] (male SD rats (4 rats)) was 10 mg/kg in each case. Further, the “Dose: Bone marrow inhibition” value in data set [1] (female) and in data set [1] (male) was 100 mg/kg each time. In addition, the “Dose: Exacerbation of common symptoms” value in data set [1] (female) and in data set [1] (male) was “(>300) mg/kg” in each case. The “Dose: Moribund condition” value in data set [1] (female) and in data set [1] (male) was “(>300) mg/kg” each time. For the same compound, the “number of types of kinases (of 88) with 50% or more inhibitory activity” value in the data set with 88 types of kinases was 4 types of kinases. The inhibition at 0.1 µM on MER is < 20%; on MNK2, 80%; on MNK1 it was 60%.
